Test system: subject
Assay: Electrocardiography before and after oral ingestion of NMN capsules in a subject with suspected ventricular extrasystole
Assay type: in vivo, human
Protocol: On Jun. 4, 2020, electrocardiography was performed on a subject by placing the subject in the supine position, putting clips on the extremities, attaching electrodes to the chest, and using an electrocardiograph (product name: Electrocardiograph ECG-2250, manufactured by NIHON KOHDEN CORPORATION) with leads I to III and leads aVR, aVL, and aVF. The paper feed speed of the electrocardiogram was set to 25 mm/second, and the vertical axis was set to 1 mV=10 mm for recording. The result is indicated in the electrocardiogram of FIG. 2 (horizontal axis: time (second), vertical axis: electric potential (mV)).
Afterwards, from Oct. 18, 2020, the subject was caused to ingest (take orally) one capsule per day of NMN pure 3000 plus (NMN 50 mg/capsule, manufactured by MIRAILAB BIOSCIENCE Inc., trade name) for 47 consecutive days.
Then, on Jan. 4, 2021, electrocardiography was performed again on the above-described subject similarly as described above. The result is indicated in the electrocardiogram of FIG. 3 (horizontal axis: time (second), vertical axis: electric potential (mV)). […] From this, it was confirmed that NMN ingestion was effective for electrocardiogram abnormalities and arrhythmias.

## NC(=O)c1ccc[n+]([C@@H]2O[C@H](COP(=O)([O-])O)[C@@H](O)[C@H]2O)c1 [NMN, nicotinamide mononucleotide]
After ingestion of one capsule per day (NMN 50 mg/capsule) for 47 consecutive days, 69 bpm before ingestion
  heart rate: 57 bpm
One subject, one capsule per day (NMN 50 mg/capsule) orally for 47 consecutive days, ECG on Jan. 4, 2021
  electrocardiogram waveforms: appeared with regularity in order
One subject, one capsule per day (NMN 50 mg/capsule) orally for 47 consecutive days, ECG on Jan. 4, 2021, complexes were recognized before ingestion
  QRS complexes having a wide and odd-shaped waveform: not recognized
Overall conclusion, one subject, NMN 50 mg/day orally for 47 consecutive days
  effect on electrocardiogram abnormalities and arrhythmias: effective
